Source: publication PMC9962329, “Photocaging of Pyridinylimidazole-Based Covalent JNK3 Inhibitors Affords Spatiotemporal Control of the Binding Affinity in Live Cells” (Pharmaceuticals, 2023)

What was measured:
[1] = target: T1, JNK3 (Homo sapiens, UniProt P53779); design: method as in PMID 34081840; details: light pulses at 390 nm, trans-cis switch; cited from earlier work
[2] = target: T1, JNK3; design: method as in PMID 34081840; details: cellular NanoBRET assay, light pulses at 400 nm; cited from earlier work
[3] = target: T1, JNK3; assay: radiometric JNK3 activity assay at Eurofins Discovery; assay type: biochemical; details: for IC50: radiometric JNK3 activity assay; for decreased biological activity compared to parent compound 1: radiometric assay, relative to 1 (IC50 = 6 nM)
[4] = target: T1, JNK3; assay: NanoBRET TE intracellular JNK3 assay; assay type: cell-based; details: for decreased binding affinity compared to lead structure 1 / IC50: NanoBRET TE intracellular JNK3 assay; for decreased binding affinity compared to lead structure 1: relative to 1 (IC50 = 243 nM); for IC50: tracer K-10 0.25 µM, means of at least two independent experiments, read-out: JNK3 IC50 ± SEM
Description: The NanoBRET™ TE intracellular JNK3 assay was performed as previously described by Andreev et al., with minor modifications.
Cells were treated with trypsin and centrifuged (210× g, 5 min) one day prior to the experiment. Afterwards, cells were resuspended in Leibovitz’ L-15 medium, supplemented with 5% FCS and 10 mM HEPES, and the suspension was adjusted to a density of 300.000 cells per mL. Meanwhile the transfection reagent was prepared. For a 96-well plate, transfection carrier DNA (4 µg) (Promega, Fitchburg, WI, USA) and JNK3-NanoLuc® Fusion vector (0.45 µg) (Promega) were diluted in Leibovitz’ L-15 medium (450 µL) and, finally, X-tremeGENE HP (13.5 µL) (Roche Diagnostics, Mannheim, Germany) was added. The mixture was incubated for 20 min at room temperature. Subsequently, the lipid–DNA complex was added to 9 mL of the cell suspension. A total of 80 µL of this cell suspension were added to each well of a white 96-well plate (Brand, Wertheim, Germany), which was incubated for 24 h at 37 °C (no additional CO2).
The fluorescent tracer K-10 (Promega, Mannheim, Germany) was diluted in DMSO to a concentration of 25 µM (100-fold more concentrated than the final assay concentration). This was further diluted 10-fold using the tracer dilution buffer (Promega, Mannheim, Germany), yielding a dilution which was 10-fold more concentrated than the final assay concentration. Next, 10 µL of the final fluorescent tracer dilution were added to the cells (the final concentration of K-10 in the assay was 0.25 µM).

[5] = target: T1, JNK3; assay: compound washout (kinetic analysis) in the NanoBRET assay; assay type: cell-based; details: 2 h incubation at 10-fold IC50, four washes, tracer 1 µM
Description: To study the putative covalent binding of inhibitors 8 and 13, we next applied the compound washout method in the NanoBRET^TM assay. Briefly, we established a protocol where the compound dissociation of 8 and 13 was determined indirectly by their ability to inhibit binding of the ATP-competitive tracer. The covalent inhibitor 1 was used as a positive control, and the propionamide 10 was used as a negative control.
For kinetic analyses experiments, plates were coated with crosslinked gelatin to improve cell adhesion. The transfection of the cells was carried out as described above, but 90 µL of cell suspension were seeded. The next day, cells were first incubated with the test compound in a 10-fold concentration of the respective IC50 value. After 2 h, the unbound compound was removed by washing the cells four times with 100 µL of Leibovitz’ L-15. Furimazine was then added according to the manufacturer`s protocol. Afterwards, a near-saturating concentration of tracer (1 µM) was added, and the measurement was started immediately.

[6] = target: T2, JNK3(C154A)-NLuc (Homo sapiens, UniProt P53779, C154A); assay: NanoBRET TE intracellular assay with JNK3(C154A)-NLuc mutant; assay type: cell-based; details: single point mutation C154A
T2 construct: mutant made in house by PCR
Description: To generate the cDNA of the JNK3(C154A)-NLuc mutant, JNK3-NanoLuc® Fusion vector (Promega) was used as a template, and two partially overlapping primers (5′-[…] and 5′-[…]) (synthesized by Eurofins, Ebersberg) annealed to the template. Phusion HF DNA Polymerase was obtained from New England BioLabs (Frankfurt, Germany). The polymerase chain reaction (PCR) was carried out as described in the Phusion HF polymerase protocol. The PCR product was treated with Dpn I endonuclease and transformed into competent E. coli Top 10 cells. Point mutation was confirmed by sequencing (Eurofins Discovery).

T1 sequence (P53779 whole entry): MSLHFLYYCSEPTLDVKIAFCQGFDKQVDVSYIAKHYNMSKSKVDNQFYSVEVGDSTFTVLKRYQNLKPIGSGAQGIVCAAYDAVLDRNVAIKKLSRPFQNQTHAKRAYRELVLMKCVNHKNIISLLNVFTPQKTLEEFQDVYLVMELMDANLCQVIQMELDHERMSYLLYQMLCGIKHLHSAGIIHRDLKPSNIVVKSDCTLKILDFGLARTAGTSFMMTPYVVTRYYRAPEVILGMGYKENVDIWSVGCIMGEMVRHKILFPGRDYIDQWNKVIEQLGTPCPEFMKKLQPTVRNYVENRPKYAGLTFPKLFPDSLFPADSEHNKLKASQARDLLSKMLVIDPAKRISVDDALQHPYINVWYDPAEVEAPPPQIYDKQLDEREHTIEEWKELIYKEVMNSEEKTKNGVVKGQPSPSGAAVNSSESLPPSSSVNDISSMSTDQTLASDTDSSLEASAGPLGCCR
T2 sequence (P53779 whole entry C154A): as the sequence (P53779 whole entry) above, with C154A counted along it

Structure (SMILES)	IC50 [3] [nM]	decreased biological activity compared to parent compound 1 [3]	decreased binding affinity compared to lead structure 1 [4] [fold]	IC50 [4] [nM]	compound dissociation after washout (displacement by tracer) [5]	decrease in JNK3 binding by introduction of the photocleavable protecting group ([4]; NanoBRET assay, without irradiation, relative to parent 13)	increase in biochemical activity by light (factor) [1]	increase in inhibitory potency by light (factor) [2]	change in binding affinity for JNK3(C154A)-NLuc versus wildtype JNK3-NLuc [6]
C=CC(=O)Nc1ccc2c(c1)CCc1cc(Nc3cc(-c4c(-c5ccc(F)cc5)nc(SC)n4C)ccn3)ccc1/N=N\2 [compound 2]	–	–	–	–	–	–	30	factor of only two	–
C=CC(=O)Nc1cccc(C(=O)N(C)c2ccc(Nc3cc(-c4c(-c5ccc(F)cc5)nc(SC)n4C)ccn3)cc2)c1 [compound 8, 3-Acrylamido-N-(4-((4-(4-(4-fluorophenyl)-1-methyl-2-(methylthio)-1H-imidazol-5-yl)pyridin-2-yl)amino)phenyl)-N-methylbenzamide hydrotrifluoroacetate]	14	two-fold decreased	4	1360 ± 342	remained persistently bound	–	–	–	dramatic decrease in the binding affinity
CCC(=O)Nc1cccc(C(=O)N(C)c2ccc(Nc3cc(-c4c(-c5ccc(F)cc5)nc(SC)n4C)ccn3)cc2)c1 [compound 10, N-(4-((4-(4-(4-Fluorophenyl)-1-methyl-2-(methylthio)-1H-imidazol-5-yl)pyridin-2-yl)amino)phenyl)-N-methyl-3-propionamidobenzamide]	24	–	–	5020 ± 97	quickly displaced by the tracer	–	–	–	–
C=CC(=O)Nc1cccc(C(=O)Nc2ccc(Nc3cc(-c4c(-c5ccc(F)cc5)nc(SC)n4C)ccn3)cc2)c1 [compound 1, acrylamido-N-(4-((4-(4-(4-fluorophenyl)-1-methyl-2-(methylthio)-1H-imidazol-5-yl)pyridin-2-yl)amino)phenyl)benzamide, reference compound]	6	–	–	243 ± 75	remained persistently bound	–	–	–	–

Second part, led by results:

IC50 [3] [nM]	decreased biological activity compared to parent compound 1 [3]	decreased binding affinity compared to lead structure 1 [4] [fold]	IC50 [4] [nM]	compound dissociation after washout (displacement by tracer) [5]	decrease in JNK3 binding by introduction of the photocleavable protecting group ([4]; NanoBRET assay, without irradiation, relative to parent 13)	Structure (SMILES)	increase in biochemical activity by light (factor) [1]	increase in inhibitory potency by light (factor) [2]	change in binding affinity for JNK3(C154A)-NLuc versus wildtype JNK3-NLuc [6]
13	two-fold decreased	5.5	1060 ± 252	remained persistently bound	–	C=CC(=O)Nc1cccc(NC(=O)c2ccc(Nc3cc(-c4c(-c5ccc(F)cc5)nc(SC)n4C)ccn3)cc2)c1 [compound 13, N-(3-Acrylamidophenyl)-4-((4-(4-(4-fluorophenyl)-1-methyl-2-(methylthio)-1H-imidazol-5-yl)pyridin-2-yl)amino)benzamide hydrotrifluoroacetate]	–	–	dramatic decrease in the binding affinity
22	–	–	> 10000	–	–	CCC(=O)Nc1cccc(NC(=O)c2ccc(Nc3cc(-c4c(-c5ccc(F)cc5)nc(SC)n4C)ccn3)cc2)c1 [compound 14, 4-((4-(4-(4-Fluorophenyl)-1-methyl-2-(methylthio)-1H-imidazol-5-yl)pyridin-2-yl)amino)-N-(3-propionamidophenyl)benzamide]	–	–	–
–	–	–	9490 ± 538	–	nearly one order of magnitude	C=CC(=O)Nc1cccc(NC(=O)c2ccc(N(Cc3cc(OC)c(OC)cc3[N+](=O)[O-])c3cc(-c4c(-c5ccc(F)cc5)nc(SC)n4C)ccn3)cc2)c1 [compound 17, N-(3-Acrylamidophenyl)-4-((4,5-dimethoxy-2-nitrobenzyl)(4-(4-(4-fluorophenyl)-1-methyl-2-(methylthio)-1H-imidazol-5-yl)pyridin-2-yl)amino)benzamide hydrotrifluoroacetate]	–	–	–
